Laboratory results taken from paper PMC6267684, “Pharmacokinetic evaluation of the PNC disassembler metarrestin in wild-type and Pdx1-Cre;LSL-Kras^G12D/+;Tp53^R172H/+ (KPC) mice, a genetically engineered model of pancreatic cancer” (Cancer Chemotherapy and Pharmacology, 2018).

Key:
[1] = Freeze-thaw stability in mouse plasma; type: in vitro ADME; settings: after three freeze-thaw cycles
Protocol: Bioanalytical method validation was performed in mouse plasma and mouse liver. The linear calibration range for metarrestin was 1.0–1000 ng/mL for plasma and 5.0–20,000 ng/g for liver homogenate. The lower limit of quantitation of the assay was 1.0 ng/mL in plasma and 5.0 ng/g in liver homogenate. The accuracy of calibration standards was between within 8% of the nominal values. Intra-assay variance and deviation from nominal values were calculated at low quality-control (LOQ, 1.0 ng/mL plasma and 5.0 ng/g liver), middle quality-control (MQC, 10.0 ng/mL and 500 ng/g), and high quality-control (HQC, 1000 ng/mL and 20,000 ng/g) levels for six replicates, each of the same analytical run (Suppl. Tables 1, 2). The variance of the QC samples (CV%, […]) ranged from 1.0 to 5.1% and the deviation was between 3 and 6% from nominal values. No endogenous interference was found at the retention time for metarrestin and internal standard as verified by testing control blank plasma and liver homogenate. Metarrestin was stable in mouse plasma after three freeze-thaw cycles.

PNC in PC3M cells = assay: PNC disassembly assay in PC3M cells; type: cell-based; settings: PC3M (PTB-GFP) cells
Protocol: The PNC disassembly assay has been previously described. […] Cells were fixed with […] for 10 min at room temperature. […] Confocal images were obtained using Opera Phoenix (PerkinElmer, Waltham, MA) and a 20× objective lens.
To examine whether measured intratumor metarrestin concentrations measured in PK studies track with intracellular metarrestin concentration, we first decided to synthesize a fluorophore conjugated analog of metarrestin. Structure activity relationship studies around the structure of metarrestin were conducted in a high throughput assay that measured in dose dependence the ability of compounds to reducing PNC prevalence in PC3M cells. […] This analog was chemically conjugated to the fluorophore boron-dipyrromethene (BODIPY®) to track the disassembly of the PNC in PC3M cancer cells by confocal microscopy (Suppl. Figure 2). […] Next, to examine cellular metarrestin levels in relation to extracellular concentrations, we exposed KPC and PC3M cells at 1 and 10 µM concentrations of metarrestin and harvested cells at different timepoints.

[2] = Preliminary toxicity profile, 25 mg/kg PO gavage for 14 days; settings: for ALP (alkaline phosphatase) / ALT (alanine transaminase) / AST (aspartate transaminase): in U/L (unit assumed); for Weight: in g (unit assumed)
[3] = females, 25 mg/kg, 14 days, in g/dL (unit assumed)
[4] = females, N=10, 25 mg/kg, number of animals
[5] = males, N=10, 25 mg/kg, number of animals

N=c1c2c(-c3ccccc3)c(-c3ccccc3)n(Cc3ccccc3)c2ncn1[C@H]1CC[C@H](O)CC1 [metarrestin, Trans-4-(7-benzyl-4-imino-5,6-diphenyl-4,7-dihydro-3H-pyrrolo[2,3-d]pyrimidin-3-yl) cyclohexanol]
stability in mouse plasma [1]: stable | IC50 (PNC in PC3M cells; Homo sapiens, PC-3M): 400 nM | IC50 (PNC in PC3M cells): 397 nM | body weight, hypoactivity, liver function tests compared to vehicle controls ([2]; daily 25 mg/kg by oral gavage for 14 days): not associated with any change in body weight, hypoactivity, or change in liver function tests | CHOL (cholesterol) ([2]; females, 25 mg/kg, 14 days): 123 ± 18.4 | LD (lactate dehydrogenase) ([2]; females, 25 mg/kg, 14 days): 495 ± 89.7 | ALP (alkaline phosphatase) ([2]; females, 25 mg/kg, 14 days): 136 ± 13.8 | ALT (alanine transaminase) ([2]; females, 25 mg/kg, 14 days): 100 ± 47.6 | AST (aspartate transaminase) ([2]; females, 25 mg/kg, 14 days): 100 ± 28.3 | GLOB (globulin) [2, 3]: 2.1 ± 0.13 | TP (total protein) [2, 3]: 5.2 ± 0.21 | Weight ([2]; females, Day 1, 25 mg/kg): 23.1 ± 1.55 | Weight Change ([2]; females, Day 1 to 4, 25 mg/kg): 0.0 ± 0.80 | Weight Change ([2]; females, Day 1 to 15, 25 mg/kg): 2.7 ± 1.04 | Weight Change ([2]; females, Day 4 to 7, 25 mg/kg): 1.2 ±0.67 | Weight ([2]; females, Day 7, 25 mg/kg): 24.3 ± 1.32 | Weight ([2]; females, Day 15, 25 mg/kg): 25.8 ± 1.70 | Death [2, 4]: 0 | Rough coat [2, 4]: 0 | Scant feces [2, 4]: 0 | CRE (creatinine) ([2]; males, 25 mg/kg, 14 days): 0.09 ± 0.015 | P04 (phosphorus) ([2]; males, 25 mg/kg, 14 days): 10.2 ± 0.50 | ALP (alkaline phosphatase) ([2]; males, 25 mg/kg, 14 days): 84 ± 13.5 | ALT (alanine transaminase) ([2]; males, 25 mg/kg, 14 days): 137 ± 67.4 | AST (aspartate transaminase) ([2]; males, 25 mg/kg, 14 days): 88 ± 24.3 | K (potassium) ([2]; males, 25 mg/kg, 14 days, in mmol/L (unit assumed)): 7.3 ± 0.21 | Weight ([2]; males, Day 1, 25 mg/kg): 31.4 ± 1.38 | Weight Change ([2]; males, Day 1 to 4, 25 mg/kg): 1.1 ± 0.90 | Weight Change ([2]; males, Day 1 to 15, 25 mg/kg): 3.1 ± 1.51 | Weight Change ([2]; males, Day 4 to 7, 25 mg/kg): 0.9 ± 0.59 | Weight ([2]; males, Day 7, 25 mg/kg): 33.3 ± 2.02 | Weight ([2]; males, Day 15, 25 mg/kg): 34.4 ± 2.33 | Cold to touch [2, 5]: 0 | Death [2, 5]: 0 | Hypoactivity [2, 5]: 0 | Rough coat [2, 5]: 6 | Scant feces [2, 5]: 0 | Thin [2, 5]: 0
